Source: patent US20250197420A1, “MACROCYCLIC COMPOUNDS, COMPOSITIONS, AND METHODS OF USING THEREOF” (Sionna Therapeutics Inc., priority 2022, published 2025)

target: T1, Purified recombinant NBD1 (Homo sapiens, UniProt P13569); assay: Aggregation analysis using differential static light scattering (DSLS): thermal stability of NBD1; type: binding; conditions: NBD1 0.2 mg/ml; Tagg of compound well minus average Tagg of DMSO control wells
T1 construct: Purified recombinant NBD1 was produced using previously described methods; made in house
T1 sequence (P13569 423-646 limits assumed): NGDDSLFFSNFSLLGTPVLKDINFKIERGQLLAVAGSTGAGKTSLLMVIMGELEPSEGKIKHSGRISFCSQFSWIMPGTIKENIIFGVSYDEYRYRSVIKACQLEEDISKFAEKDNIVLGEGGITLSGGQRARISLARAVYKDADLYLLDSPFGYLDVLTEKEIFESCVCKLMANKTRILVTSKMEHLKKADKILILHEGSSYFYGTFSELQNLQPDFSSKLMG
Description: Purified recombinant NBD1 was produced using previously described methods (A. Schmidt, J. L. Mendoza, P. J. Thomas (2011) Biochemical and Biophysical Approaches to Probe CFTR Structure (365-376) M. D. Amaral, K. Kunzelmann (eds.), Cystic Fibrosis, Methods in Molecular Biology 741, Springer Science+Business Media). The effect of test compounds on thermal stability of NBD1 was evaluated by differential static light scattering (DSLS) using the Harbinger Stargazer-384 instrument (Epiphyte Three, Toronto, Canada). Test compounds were dissolved and diluted to desired concentrations in 100% DMSO. The compounds or DMSO controls (100 nL) were stamped into wells of a […] low volume optical plate (Corning Inc., Corning, NY) using the Echo 555 acoustic liquid handler (Labcyte Inc., San Jose, CA).
NBD1 protein was diluted to 0.2 mg/ml in S200 buffer (50 mM Tris-HCl, 150 mM NaCl, 5 mM MgCl2, 2 mM ATP, 2 mM DTT, pH7.6) containing 1% glycerol. 10 uL of protein solution was aliquoted into the 384-well plate harboring the test compounds and 10 uL mineral oil was overlaid onto the protein solution, using the epMotion robotic liquid handler (Eppendorf North America, Hauppauge, NY). After placing into the Stargazer instrument, the plate was heated at 1° C. per minute to 70° C. Images were captured from 25° C. to 70° C. every 0.5° C. At the end of the experiment run, instrument software integrated image files and analyzed data automatically. A […] regression curve was generated for each well, representing the increase in light scattering over time. A temperature of aggregation (Tagg) was calculated based on the inflection point of the curve. To better compare data across experiments the average Tagg for DMSO control wells was calculated and subtracted from values for wells containing compounds to obtain a “ΔTagg” value. These ΔTagg values reflect stabilizing efficacy of the compounds. As set forth in Table 2 below, an ΔTagg value less than or equal to 5° C. is marked “A”; a value above 5° C. and less than or equal to 10° C. is marked “B”; a value greater than 10° C. and less than or equal to 25° C. is marked “C”.

Row | SMILES | DSLS (ΔTagg)
1 | CC1CNC(=O)CCc2c(c(F)cc3[nH]ccc23)Oc2ccc(F)c(c2)-c2ncc([nH]2)C(C)(c2cccc(CCC(=O)O)c2)COC1 (centres unmarked) [Compound 23, 3-[3-(23,29-Difluoro-6,10-dimethyl-13-oxo-8,25-dioxa-3,12,20,31-tetrazapentacyclo[24.3.1.12,5.016,24.017,21]hentriaconta-1(30),2,4,16,18,21,23,26,28-nonaen-6-yl)phenyl]propanoic acid] | C (a value greater than 10 °C and less than or equal to 25 °C is marked “C”)
2 | [2H]C([2H])([2H])n1nc2nc1-c1cc(ccc1F)Oc1c(F)cc3[nH]ccc3c1CCC(=O)N(C)CC(C)(C)CCCC2(C)c1cccc(CCCO)c1 (centres unmarked) [Compound 78, 23,29-difluoro-6-[3-(3-hydroxypropyl)phenyl]-6,10,10,12-tetramethyl-3-(trideuteriomethyl)-25-oxa-3,4,12,20,31-pentazapentacyclo-[24.3.1.12,5.016,24.017,21]hentriaconta-1(30),2(31),4,16,18,21,23,26,28-nonaen-13-one] | A (an ΔTagg value less than or equal to 5 °C is marked “A”)
3 | O=C(O)CCc1cccc(C2CCCCCCNC(=O)CCc3c(c(F)cc4[nH]cnc34)Oc3ccc(F)c(c3)-c3ncc2[nH]3)c1 (centres unmarked) [Compound 5, 3-[3-(24,30-Difluoro-14-oxo-26-oxa-3,13,19,21,32-pentazapentacyclo-[25.3.1.12,5.017,25.018,22]dotriaconta-1(31),2,4,17,19,22,24,27,29-nonaen-6-yl)phenyl]propanoic acid] | B (a value above 5 °C and less than or equal to 10 °C is marked “B”)
4 | CC1(c2cccc(CCC(=O)O)c2)CCCC(=O)NCCCc2c(c(F)cc3[nH]ccc23)Oc2ccc(F)c(c2)-c2ncc1[nH]2 (centres unmarked) [Compound 17, 3-[3-(22,28-Difluoro-6-methyl-10-oxo-24-oxa-3,11,19,30-tetrazapentacyclo[23.3.1.12,5.015,23.016,20]triaconta-1(29),2,4,15,17,20,22,25,27-nonaen-6-yl)phenyl]propanoic acid] | C (a value greater than 10 °C and less than or equal to 25 °C is marked “C”)
5 | O=C(O)CCc1cccc(C2CCCCOC(=O)NCCc3c(c(F)cc4[nH]ccc34)Oc3ccc(F)c(c3)-c3ncc2[nH]3)c1F (centres unmarked) [Compound 81, 3-[3-(23,29-Difluoro-12-oxo-11,25-dioxa-3,13,20,31-tetrazapentacyclo[24.3.1.12,5.016,24.017,21]hentriaconta-1(30),2,4,16(24),17(21),18,22,26,28-nonaen-6-yl)-2-fluoro-phenyl]propanoic acid] | C (a value greater than 10 °C and less than or equal to 25 °C is marked “C”)
6 | O=C(O)CCc1cccc(C2CCCCCNC(=O)CCc3c(c(F)cc4[nH]ccc34)Oc3ccc(F)c(c3)-c3ncc2[nH]3)c1 (centres unmarked) [Compound 1, 3-[3-(23,29-difluoro-13-oxo-25-oxa-3,12,20,31-tetrazapentacyclo[24.3.1.12,5.016,24.017,21]hentriaconta-1(30),2,4,16,18,21,23,26,28-nonaen-6-yl)phenyl]propanoic acid] | B (a value above 5 °C and less than or equal to 10 °C is marked “B”)
7 | O=C1CCc2c(c(F)cc3[nH]ccc23)Oc2ccc(F)c(c2)-c2ncc([nH]2)C(c2ccccc2)CCCCS(=O)(=O)N1 (centres unmarked) [Compound 13, 23,29-Difluoro-11,11-dioxo-6-phenyl-25-oxa-116-thia-3,12,20,31-tetrazapentacyclo[24.3.1.12,5.016,24.017,21]hentriaconta-1(30),2,4,16,18,21,23,26,28-nonaen-13-one] | C (a value greater than 10 °C and less than or equal to 25 °C is marked “C”)
8 | CN1Cc2c(c(F)cc3[nH]ccc23)Oc2ccc(F)c(c2)-c2ncc([nH]2)C(C)(c2cccc(CCC(=O)O)c2)CCCCCCC1=O (centres unmarked) [Compound 14, 3-[3-(23,29-Difluoro-6,14-dimethyl-13-oxo-25-oxa-3,14,20,31-tetrazapentacyclo[24.3.1.12,5.016,24.017,21]hentriaconta-1(30),2,4,16(24),17(21),18,22,26,28-nonaen-6-yl)phenyl]propanoic acid] | C (a value greater than 10 °C and less than or equal to 25 °C is marked “C”)
9 | O=C1NCCc2c(c(F)cc3[nH]ccc23)Oc2ccc(F)c(c2)-c2ncc([nH]2)C(c2ccccc2F)CCCCO1 (centres unmarked) [Compound 82, 23,29-Difluoro-6-(2-fluorophenyl)-11,25-dioxa-3,13,20,31-tetrazapentacyclo[24.3.1.12,5.016,24.017,21]hentriaconta-1(30),2,4,16(24),17(21),18,22,26,28-nonaen-12-one] | A (an ΔTagg value less than or equal to 5 °C is marked “A”)
10 | CN1CC(=O)CCCC(C)(c2cccc(CCC(=O)O)c2)c2cnc([nH]2)-c2cc(ccc2F)Oc2c(F)cc3[nH]ccc3c2CCC1=O (centres unmarked) [Compound 105, 3-[3-(23,29-Difluoro-6,12-dimethyl-10,13-dioxo-25-oxa-3,12,20,31-tetrazapentacyclo[24.3.1.12,5.016,24.017,21]hentriaconta-1(30),2,4,16,18,21,23,26,28-nonaen-6-yl)phenyl]propanoic acid] | C (a value greater than 10 °C and less than or equal to 25 °C is marked “C”)
11 | CC1(c2cccc(CCC(=O)O)c2)CCC(=O)NCCCCc2c(c(F)cc3[nH]ccc23)Oc2ccc(F)c(c2)-c2ncc1[nH]2 (centres unmarked) [Compound 24, 3-[3-(22,28-Difluoro-6-methyl-9-oxo-24-oxa-3,10,19,30-tetrazapentacyclo[23.3.1.12,5.015,23.016,20]triaconta-1(29),2,4,15,17,20,22,25,27-nonaen-6-yl)phenyl]propanoic acid] | C (a value greater than 10 °C and less than or equal to 25 °C is marked “C”)
12 | CC(CC(=O)O)c1cccc(C2CCCCCN(C)C(=O)CCc3c(c(F)cc4[nH]ccc34)Oc3ccc(F)c(c3)-c3ncc2[nH]3)c1 (centres unmarked) [Compound 21, 3-[3-(23,29-Difluoro-12-methyl-13-oxo-25-oxa-3,12,20,31-tetrazapentacyclo[24.3.1.12,5.016,24.017,21]hentriaconta-1(30),2,4,16,18,21,23,26,28-nonaen-6-yl)phenyl]butanoic acid] | C (a value greater than 10 °C and less than or equal to 25 °C is marked “C”)
13 | CC(Cc1cccc(C2CCCCCNC(=O)CCc3c(c(F)cc4[nH]ccc34)Oc3ccc(F)c(c3)-c3ncc2[nH]3)c1)C(=O)O (centres unmarked) [Compound 7, 3-[3-(23,29-Difluoro-13-oxo-25-oxa-3,12,20,31-tetrazapentacyclo-[24.3.1.12,5.016,24.017,21]hentriaconta-1(30),2,4,16,18,21,23,26,28-nonaen-6-yl)phenyl]-2-methyl-propanoic acid] | C (a value greater than 10 °C and less than or equal to 25 °C is marked “C”)
14 | CC1(C)CCC(c2cccc(CCC(=O)O)c2F)c2cnc([nH]2)-c2cc(ccc2F)Oc2c(F)cc3[nH]ccc3c2CCC(=O)NC1 (centres unmarked) [Compound 32, 3-[3-(22,28-Difluoro-9,9-dimethyl-12-oxo-24-oxa-3,11,19,30-tetrazapentacyclo[23.3.1.12,5.015,23.016,20]triaconta-1(29),2,4,15,17,20,22,25,27-nonaen-6-yl)-2-fluoro-phenyl]propanoic acid] | B (a value above 5 °C and less than or equal to 10 °C is marked “B”)
